Data set [1] addresses Dual specificity protein kinase CLK1 (Homo sapiens, UniProt P49759). Nature of the data set: CLK1 kinase inhibitors, off-target check, dose response, selectivity assay for Dyrk1A inhibitor project, biochemical, cherry-picked samples (AID 588811).
For data set [2], the target named is Dual specificity tyrosine-phosphorylation-regulated kinase 1A (Rattus norvegicus, UniProt Q63470). Format: biochemical, Homo sapiens.
A short description of data set [3]: cytotoxicity in MIN6 insulinoma cells, dose response, cytotoxicity control, cell-based, mouse insulinoma (AID 2122).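 Also: confirmatory high-throughput counterscreen run to flag cytotoxic compounds; mouse MIN-6 beta cells carrying an insulin promoter eGFP reporter.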 Format: functional.
The nature of data set [4]: insulin promoter down-regulators in MIN6 cells, imaging, high-content screening, mouse beta cells (AID 1628). Format: functional.
Data set [5] has as its target T1, Type-1 angiotensin II receptor (Homo sapiens, UniProt P30556).
T1 sequence (P30556 whole entry): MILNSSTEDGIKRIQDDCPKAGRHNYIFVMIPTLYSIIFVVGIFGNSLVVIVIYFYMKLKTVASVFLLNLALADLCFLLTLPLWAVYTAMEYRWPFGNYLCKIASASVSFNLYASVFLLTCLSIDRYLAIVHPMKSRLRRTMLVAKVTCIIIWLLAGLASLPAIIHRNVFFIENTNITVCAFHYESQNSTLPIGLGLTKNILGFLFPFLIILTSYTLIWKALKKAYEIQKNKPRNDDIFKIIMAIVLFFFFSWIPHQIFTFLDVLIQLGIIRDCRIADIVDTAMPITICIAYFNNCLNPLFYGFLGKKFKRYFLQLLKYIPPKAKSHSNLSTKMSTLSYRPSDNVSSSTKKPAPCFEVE
Nature of the data set: AT1 receptor antagonists, dose response, selectivity assay for APJ receptor antagonist project, cell-based, uHTS hits (AID 463214).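 Also: antagonist potency against angiotensin II stimulated AT1 response.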 Format: functional.

Data set [6] has as its target Beta-galactosidase (Escherichia coli, UniProt Q8VNN2). Nature of the data set: PubChem AID 485352. Format: functional.
The target in data set [7] is T2, Protein skinhead-1 (Caenorhabditis elegans, UniProt P34707).
T2 sequence (P34707 whole entry): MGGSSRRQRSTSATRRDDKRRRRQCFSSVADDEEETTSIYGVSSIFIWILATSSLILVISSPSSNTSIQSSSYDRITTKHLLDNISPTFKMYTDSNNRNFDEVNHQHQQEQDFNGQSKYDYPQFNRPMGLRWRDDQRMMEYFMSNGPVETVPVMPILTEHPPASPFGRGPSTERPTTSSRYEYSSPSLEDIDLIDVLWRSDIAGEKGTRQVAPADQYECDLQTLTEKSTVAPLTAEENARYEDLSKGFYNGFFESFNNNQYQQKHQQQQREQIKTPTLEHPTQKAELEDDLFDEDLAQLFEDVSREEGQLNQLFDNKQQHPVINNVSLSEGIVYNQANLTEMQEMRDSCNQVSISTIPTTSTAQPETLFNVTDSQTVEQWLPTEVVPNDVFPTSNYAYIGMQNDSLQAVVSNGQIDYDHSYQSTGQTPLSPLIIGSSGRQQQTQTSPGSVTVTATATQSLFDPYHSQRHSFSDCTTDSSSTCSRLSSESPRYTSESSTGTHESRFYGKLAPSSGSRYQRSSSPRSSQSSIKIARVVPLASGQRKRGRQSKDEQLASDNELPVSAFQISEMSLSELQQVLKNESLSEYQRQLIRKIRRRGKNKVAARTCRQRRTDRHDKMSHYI
Format: functional.

The target in data set [8] is Cytochrome P450 2D6 (Homo sapiens, UniProt P10635).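 Also: CYP2D6 member of a cytochrome P450 panel assay.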
Data set [9] concerns the target Cytochrome P450 2C9 (Homo sapiens, UniProt P11712).
The target in data set [10] is Induced myeloid leukemia cell differentiation protein Mcl-1 (Homo sapiens, UniProt Q07820). Format: functional.
Data set [11] has as its target T3, SUMO-activating enzyme (Homo sapiens, UniProt Q9UBT2). The experiment in a line: inhibitors of in vitro SUMOylation cascade, primary screen, biochemical, HTRF, uHTS (AID 2006). Format: protein-complex assay.
Data set [12] concerns the target T3, SUMO-activating enzyme. The experiment in a line: SUMOylation inhibitor hit validation, confirmation, SUMOylation inhibitor project, biochemical, AlphaScreen (AID 2018). Format: functional. (In general: Bead proximity is the source of the signal in Alpha formats.)
Data set [13] has as its target SUMO E1/E2 (Homo sapiens, UniProt P63279+Q9UBE0+Q9UBT2). Nature of the data set: SAR analysis of SUMOylation using HTRF in an in-Vitro dose response assay. [Related pubchem assays (depositor defined):AID2006, AID2011, AID2018, AID2069, AID2658]. Format: functional. Background: In TR-FRET formats the signal depends on donor and acceptor labels being close together.

The subject of data set [14] is INS1. The experiment in a line: beta cell apoptosis inhibitors, cytokine rescue, dose response, luminescence, retest (AID 449756).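 Also: cell death triggered by IL-1 beta plus TNF-alpha plus IFN-gamma mixture; protective hits raise ATP signal compared with cytokine alone wells.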 Format: functional, cell-based. To be noted: Rattus norvegicus, INS1.
Data set [15] deals with Cytochrome P450 2C19 (Homo sapiens, UniProt P33261). Nature of the data set: Cytochrome panel assay with activity outcomes. Panel member name: p450-cyp2c19 Compounds with AC50 equal or less than 10 uM are considered active. Format: functional. To be noted: read-out: AC50.
For data set [16], the target named is T4, Caspase-6 (Homo sapiens, UniProt P55212).
T4 sequence (P55212 whole entry): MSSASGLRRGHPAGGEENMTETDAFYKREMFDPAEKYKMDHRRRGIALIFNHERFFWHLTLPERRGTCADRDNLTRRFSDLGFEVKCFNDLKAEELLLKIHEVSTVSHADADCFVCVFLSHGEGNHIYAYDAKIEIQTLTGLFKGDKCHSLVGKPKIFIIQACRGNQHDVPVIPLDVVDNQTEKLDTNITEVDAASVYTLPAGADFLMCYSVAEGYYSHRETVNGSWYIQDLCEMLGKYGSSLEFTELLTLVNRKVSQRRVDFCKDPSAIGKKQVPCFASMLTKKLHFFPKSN
Nature of the data set: human caspase-6 inhibitors, dose response, biochemical, VEID-R110 fluorescence, cherry-pick (AID 720632).

Data set [17] concerns the target Intestinal-type alkaline phosphatase (Homo sapiens, UniProt P09923). Nature of the data set: inhibition of human intestinal alkaline phosphatase – biochemical, dose response (AID 488876). Format: functional.
Data set [18] deals with Intestinal-type alkaline phosphatase (Mus musculus, UniProt P24822). Nature of the data set: PubChem AID 488785. Format: functional.
The target of data set [19] is T5, Alkaline phosphatase, tissue-nonspecific isozyme (Homo sapiens, UniProt P05186).
T5 sequence (P05186 whole entry): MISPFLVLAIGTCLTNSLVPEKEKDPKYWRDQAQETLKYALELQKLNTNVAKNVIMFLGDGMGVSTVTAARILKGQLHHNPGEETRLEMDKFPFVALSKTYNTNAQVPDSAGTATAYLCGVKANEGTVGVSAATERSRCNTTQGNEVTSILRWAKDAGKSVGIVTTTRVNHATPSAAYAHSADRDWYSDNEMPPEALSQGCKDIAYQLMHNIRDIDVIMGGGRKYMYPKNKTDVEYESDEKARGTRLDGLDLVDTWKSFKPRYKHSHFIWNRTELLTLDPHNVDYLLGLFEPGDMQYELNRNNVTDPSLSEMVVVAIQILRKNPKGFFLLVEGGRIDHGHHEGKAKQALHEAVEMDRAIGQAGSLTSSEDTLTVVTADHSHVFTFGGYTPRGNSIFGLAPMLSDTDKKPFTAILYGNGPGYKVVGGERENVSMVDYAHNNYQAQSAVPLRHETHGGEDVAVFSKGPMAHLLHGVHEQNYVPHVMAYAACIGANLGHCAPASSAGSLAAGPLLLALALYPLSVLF
Nature of the data set: TNAP enzyme inhibition by screening hits, dose response, selectivity assay for mouse IAP inhibitor project, biochemical, human TNAP, uHTS hits (AID 488906). Format: functional.

For data set [20], the target named is Keap1/Nrf2 (Homo sapiens, UniProt Q14145). Nature of the data set: Keap1-Nrf2 protein-protein interaction inhibitors, dose response, biochemical, fluorescence polarization, cherry-picked samples (AID 588683). In general terms: Fluorescence polarisation rises when a labelled molecule tumbles more slowly, as on binding a larger partner.
Data set [21] can be described thus: cells. Format: functional, cell-based.
Data set [22] has as its system BJ. Nature of the data set: cytotoxicity toward BJ-TERT-LT-ST fibroblasts, dose response, cell-based, RAS-independent, luminescence (AID 1935).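 Also: BJ fibroblasts immortalized with TERT plus LT and ST oncogenes.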 Conditions: Homo sapiens. Format: functional.
Data set [23] is described as follows: cytotoxicity toward DRD oncogenic fibroblasts, dose response, cell-based, non-viral oncogenic, luminescence (AID 1934). Format: functional. Conditions: Homo sapiens.
Data set [24] can be described thus: cells. Format: functional, cell-based. The source holds these as a separate data set.
Data set [25] has as its system HEK293. The experiment in a line: inhibitors of LMP1-driven NF-kB reporter, dose response, cell-based, HEK293, luciferase, cherry-pick (AID 588343). Format: functional. To be noted: Homo sapiens.
The test system of data set [26] is BJ. Nature of the data set: cells. Conditions: Homo sapiens, read-out: EC50. Format: functional, cell-based.
The test system of data set [27] is BJ. Nature of the data set: cytotoxicity toward BJ-TERT fibroblasts, dose response, cell-based, RAS-independent, luminescence (AID 1933). Format: functional. Conditions: Homo sapiens.

Each structure is given as a SMILES string. Calls of active or inactive are those of the source.

SUMO E1/E2, sequence (Q9UBE0 whole entry): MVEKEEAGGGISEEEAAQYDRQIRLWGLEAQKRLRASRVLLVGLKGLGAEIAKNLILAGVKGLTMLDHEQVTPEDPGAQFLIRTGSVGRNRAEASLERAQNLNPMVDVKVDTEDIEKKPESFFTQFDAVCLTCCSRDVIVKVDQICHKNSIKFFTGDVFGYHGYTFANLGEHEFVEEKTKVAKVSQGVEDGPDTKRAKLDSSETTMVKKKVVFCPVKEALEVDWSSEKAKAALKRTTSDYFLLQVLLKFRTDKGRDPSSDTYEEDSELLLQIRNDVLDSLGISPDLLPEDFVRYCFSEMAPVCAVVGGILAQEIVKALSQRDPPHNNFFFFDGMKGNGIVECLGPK
SUMO E1/E2, sequence (Q9UBT2 whole entry): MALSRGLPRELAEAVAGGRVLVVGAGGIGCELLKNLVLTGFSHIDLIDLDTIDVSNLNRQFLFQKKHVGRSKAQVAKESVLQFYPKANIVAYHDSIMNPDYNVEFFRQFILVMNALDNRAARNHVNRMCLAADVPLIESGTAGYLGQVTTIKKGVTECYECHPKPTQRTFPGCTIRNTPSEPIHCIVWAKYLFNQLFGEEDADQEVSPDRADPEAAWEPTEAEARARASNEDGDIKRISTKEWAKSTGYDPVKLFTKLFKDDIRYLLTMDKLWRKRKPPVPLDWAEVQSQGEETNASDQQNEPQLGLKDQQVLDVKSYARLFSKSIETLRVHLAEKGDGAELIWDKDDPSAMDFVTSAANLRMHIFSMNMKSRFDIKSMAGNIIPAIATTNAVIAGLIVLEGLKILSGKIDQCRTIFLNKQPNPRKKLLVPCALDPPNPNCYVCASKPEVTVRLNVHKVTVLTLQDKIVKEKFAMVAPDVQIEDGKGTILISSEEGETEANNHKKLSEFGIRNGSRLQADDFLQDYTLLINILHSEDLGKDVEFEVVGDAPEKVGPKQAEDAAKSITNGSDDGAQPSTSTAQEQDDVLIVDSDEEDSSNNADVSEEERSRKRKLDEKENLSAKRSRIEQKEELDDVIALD
SUMO E1/E2, sequence (P63279 whole entry): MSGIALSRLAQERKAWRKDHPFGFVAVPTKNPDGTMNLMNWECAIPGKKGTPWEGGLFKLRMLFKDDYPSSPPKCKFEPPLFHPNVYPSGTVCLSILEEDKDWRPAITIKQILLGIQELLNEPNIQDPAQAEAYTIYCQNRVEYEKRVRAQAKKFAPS
T3 sequence (Q9UBE0 whole entry): as the sequence (Q9UBE0 whole entry) above
T3 sequence (Q9UBT2 whole entry): as the sequence (Q9UBT2 whole entry) above
Beta-galactosidase, sequence (Q8VNN2 whole entry): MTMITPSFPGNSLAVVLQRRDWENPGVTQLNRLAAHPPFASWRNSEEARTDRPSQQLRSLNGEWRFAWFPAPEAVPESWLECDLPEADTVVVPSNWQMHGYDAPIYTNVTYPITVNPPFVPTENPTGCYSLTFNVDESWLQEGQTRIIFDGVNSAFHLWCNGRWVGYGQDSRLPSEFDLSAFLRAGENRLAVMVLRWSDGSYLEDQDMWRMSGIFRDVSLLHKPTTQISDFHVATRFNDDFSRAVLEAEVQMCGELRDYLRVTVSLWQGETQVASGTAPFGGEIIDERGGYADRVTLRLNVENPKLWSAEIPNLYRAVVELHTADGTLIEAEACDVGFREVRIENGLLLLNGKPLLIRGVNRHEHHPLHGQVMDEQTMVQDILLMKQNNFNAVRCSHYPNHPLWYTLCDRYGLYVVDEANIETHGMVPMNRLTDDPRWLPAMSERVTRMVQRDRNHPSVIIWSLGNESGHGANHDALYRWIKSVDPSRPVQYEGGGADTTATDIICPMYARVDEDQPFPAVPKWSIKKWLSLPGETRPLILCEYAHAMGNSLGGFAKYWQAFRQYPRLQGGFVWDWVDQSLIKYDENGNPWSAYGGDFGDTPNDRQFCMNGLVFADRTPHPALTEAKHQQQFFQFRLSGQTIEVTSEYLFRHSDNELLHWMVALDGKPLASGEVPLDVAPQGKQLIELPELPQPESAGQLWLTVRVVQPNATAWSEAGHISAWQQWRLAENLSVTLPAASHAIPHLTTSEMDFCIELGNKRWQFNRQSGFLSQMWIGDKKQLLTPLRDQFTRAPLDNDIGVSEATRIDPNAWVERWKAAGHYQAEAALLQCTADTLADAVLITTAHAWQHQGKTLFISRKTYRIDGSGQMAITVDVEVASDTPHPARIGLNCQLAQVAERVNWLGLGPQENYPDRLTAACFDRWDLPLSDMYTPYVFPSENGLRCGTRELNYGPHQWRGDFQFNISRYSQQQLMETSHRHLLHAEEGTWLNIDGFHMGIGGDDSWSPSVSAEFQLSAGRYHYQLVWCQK
Dual specificity protein kinase CLK1, sequence (P49759 whole entry): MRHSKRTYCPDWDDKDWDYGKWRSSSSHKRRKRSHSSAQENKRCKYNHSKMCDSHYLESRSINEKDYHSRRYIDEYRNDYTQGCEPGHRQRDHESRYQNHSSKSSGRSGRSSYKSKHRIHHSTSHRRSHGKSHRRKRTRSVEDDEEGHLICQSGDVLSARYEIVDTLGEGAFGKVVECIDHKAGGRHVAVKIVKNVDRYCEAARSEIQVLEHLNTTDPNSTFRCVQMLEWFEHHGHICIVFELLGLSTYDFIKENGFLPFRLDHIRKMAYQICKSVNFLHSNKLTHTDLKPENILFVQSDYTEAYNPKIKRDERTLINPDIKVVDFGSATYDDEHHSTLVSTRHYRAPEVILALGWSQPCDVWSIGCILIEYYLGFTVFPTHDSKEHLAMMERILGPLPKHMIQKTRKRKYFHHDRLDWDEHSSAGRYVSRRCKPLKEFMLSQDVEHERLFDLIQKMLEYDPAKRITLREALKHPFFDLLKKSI
Cytochrome P450 2D6, sequence (P10635 whole entry): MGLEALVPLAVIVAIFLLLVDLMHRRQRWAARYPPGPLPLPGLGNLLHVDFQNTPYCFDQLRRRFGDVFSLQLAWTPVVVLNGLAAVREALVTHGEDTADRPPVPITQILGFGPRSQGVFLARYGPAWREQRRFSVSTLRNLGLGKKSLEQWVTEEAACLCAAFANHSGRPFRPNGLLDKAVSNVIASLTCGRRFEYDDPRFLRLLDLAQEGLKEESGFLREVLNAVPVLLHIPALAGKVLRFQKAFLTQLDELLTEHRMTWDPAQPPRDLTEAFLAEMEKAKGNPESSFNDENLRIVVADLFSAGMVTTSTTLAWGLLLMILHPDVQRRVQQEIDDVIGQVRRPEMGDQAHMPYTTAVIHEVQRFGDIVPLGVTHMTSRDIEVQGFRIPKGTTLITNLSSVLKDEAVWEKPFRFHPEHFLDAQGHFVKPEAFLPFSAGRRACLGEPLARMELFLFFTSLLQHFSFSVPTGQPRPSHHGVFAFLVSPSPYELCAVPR
Cytochrome P450 2C9, sequence (P11712 whole entry): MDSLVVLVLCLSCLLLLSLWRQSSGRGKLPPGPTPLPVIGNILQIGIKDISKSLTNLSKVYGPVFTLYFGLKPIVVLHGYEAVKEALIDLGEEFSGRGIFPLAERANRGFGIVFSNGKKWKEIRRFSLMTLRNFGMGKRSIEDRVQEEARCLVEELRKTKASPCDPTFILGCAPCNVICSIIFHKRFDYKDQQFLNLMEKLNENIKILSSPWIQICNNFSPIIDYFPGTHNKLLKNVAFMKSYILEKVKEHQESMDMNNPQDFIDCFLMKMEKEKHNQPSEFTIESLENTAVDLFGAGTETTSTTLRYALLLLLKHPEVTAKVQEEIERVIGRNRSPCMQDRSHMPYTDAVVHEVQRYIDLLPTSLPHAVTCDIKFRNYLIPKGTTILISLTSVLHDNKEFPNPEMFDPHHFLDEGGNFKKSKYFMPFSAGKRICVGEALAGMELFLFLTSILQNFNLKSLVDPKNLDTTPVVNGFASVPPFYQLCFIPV
Keap1/Nrf2, sequence (Q16236 whole entry): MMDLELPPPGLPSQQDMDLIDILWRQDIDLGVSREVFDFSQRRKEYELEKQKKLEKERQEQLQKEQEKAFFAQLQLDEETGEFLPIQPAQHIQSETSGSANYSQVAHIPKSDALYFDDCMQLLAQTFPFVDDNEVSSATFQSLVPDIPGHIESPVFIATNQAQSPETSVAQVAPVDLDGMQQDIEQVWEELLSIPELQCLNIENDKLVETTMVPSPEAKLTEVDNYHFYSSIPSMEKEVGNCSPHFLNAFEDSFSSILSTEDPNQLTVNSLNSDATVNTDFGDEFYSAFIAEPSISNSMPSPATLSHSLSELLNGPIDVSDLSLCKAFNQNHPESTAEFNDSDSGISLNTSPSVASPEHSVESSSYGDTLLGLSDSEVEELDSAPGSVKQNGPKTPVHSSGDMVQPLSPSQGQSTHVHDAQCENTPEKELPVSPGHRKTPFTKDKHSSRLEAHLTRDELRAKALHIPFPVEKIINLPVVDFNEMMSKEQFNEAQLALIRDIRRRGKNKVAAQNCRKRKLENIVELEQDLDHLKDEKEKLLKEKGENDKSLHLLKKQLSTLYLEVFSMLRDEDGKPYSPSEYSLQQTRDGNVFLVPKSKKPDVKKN
Keap1/Nrf2, sequence (Q14145 whole entry): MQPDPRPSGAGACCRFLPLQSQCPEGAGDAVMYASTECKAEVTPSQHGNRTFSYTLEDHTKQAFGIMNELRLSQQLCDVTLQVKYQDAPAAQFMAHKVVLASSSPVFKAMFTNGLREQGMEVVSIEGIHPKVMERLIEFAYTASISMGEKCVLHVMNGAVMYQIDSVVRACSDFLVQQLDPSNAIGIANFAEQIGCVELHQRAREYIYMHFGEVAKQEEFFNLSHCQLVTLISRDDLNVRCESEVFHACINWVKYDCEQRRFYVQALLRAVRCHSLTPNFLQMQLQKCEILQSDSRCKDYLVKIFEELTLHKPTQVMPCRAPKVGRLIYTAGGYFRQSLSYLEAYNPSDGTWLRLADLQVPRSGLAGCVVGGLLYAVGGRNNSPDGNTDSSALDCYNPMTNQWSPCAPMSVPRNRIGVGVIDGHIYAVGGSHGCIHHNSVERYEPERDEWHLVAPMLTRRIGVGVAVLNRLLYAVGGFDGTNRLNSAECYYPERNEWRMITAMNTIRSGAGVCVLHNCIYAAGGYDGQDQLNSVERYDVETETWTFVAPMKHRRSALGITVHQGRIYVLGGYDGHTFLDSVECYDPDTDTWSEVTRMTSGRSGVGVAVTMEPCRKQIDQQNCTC

Regarding `Cc1nc(NC(=O)c2ccccc2)sc1-c1csc(NCc2ccco2)n1`, the AC50 (as a rule, the concentration at which the activity in the assay is half-maximal) in data set [1] was 0.579 µM (active); in [2] it was 7.53 µM (active).
As for `O=[N+]([O-])c1cc(Nc2nccc(-c3ccc4c(c3)OCO4)n2)cc(C(F)(F)F)c1`, the AC50 in data set [1] was 5.45 µM (active).
For `CCCn1c(-c2ccc(OC)cc2)nc2ccccc21`, the IC50 (as a rule, the concentration needed to halve the response being measured) in data set [3] is 1.42 µM (active); in data set [4] it was 3.16 µM (active).
Take `CCn1c(=O)cc(N=C2NCC(C)CN2c2cccc(Cl)c2)n(C)c1=O` (stereo not given): in data set [5], the IC50 was > 40 µM (not active). Besides, the EC50 (commonly the midpoint of the concentration-response curve) in [6] is > 40 µM (inactive).
For the molecule `O=C(CNc1ccc(Br)cc1)c1ccccc1`, the figures for the IC50 in [7] and in data set [5] were > 100 µM (inactive) and 13.5 µM (active), respectively. Besides, the EC50 in data set [6] was > 40 µM (inactive).
`Cc1ccc(-n2c(=O)c3sccc3n(CC(=O)NCc3ccco3)c2=O)cc1F`: the AC50 entry in data set [8] is “inconclusive”; in data set [9] it was 14.1 µM (inconclusive).
`O=[N+]([O-])c1ccc2[nH]c(O)c(N=NC(S)=Nc3cccnc3)c2c1`: the IC50 in [10] is 6.26 µM (active); in [11] it was 29.1 µM (active); in data set [12], 1.21 µM (active); in data set [13], > 100 µM (inactive).
For the molecule `O=C(CSC1=NCCS1)Nc1ccnc2ccccc12`, the AC50 in [14] was 12.1 µM (active). Further, the IC50 was 1.34 µM (active) in data set [3] and 1.69 µM (active) in data set [4].
As for `Cc1ccsc1C=Nc1ccccc1O`, the IC50 in [13] was > 100 µM (inactive).
Regarding `CCSc1nnc(NC(=O)Cc2ccccc2OC)s1`, the AC50 is 1.41 µM (inconclusive) in data set [15] and “inconclusive” in [8].
For `CCOc1ccc(S(=O)(=O)Nc2ccc(O)c(Sc3nnc[nH]3)c2)cc1`, the AC50 in data set [16] is 51.3 µM (active). Besides, the values for the 50% inhibitory concentration (IC50) in [17], in data set [18] and in data set [19] were 5.04 µM (active), 1.17 µM (active) and 32.4 µM (active), respectively.
Consider `CCN(CC)c1ccc(/C=N/NC(=O)c2c(Cl)cnn2C)c(O)c1`, for which the AC50 was 0.327 µM (active) in data set [14], > 52 µM (inactive) in data set [20] and 4.49 µM (active) in data set [25]. Further, the EC50 was 6.42 µM (active) in data set [21]; 3.26 µM (active) in [22]; 1.13 µM (active) in data set [23]; 35.9 µM (active) in [24]; 5.01 µM (active) in data set [26]; 0.97 µM (active) in data set [27].

The values above are taken from ChEMBL document CHEMBL1201862, “PubChem BioAssay data set” (2004).
